Key:
[1] = tested on: C. albicans; assay: C. albicans colony forming units (candidacidal activity); format: cell-based; conditions: FIG. 2
Procedure: C. albicans (clinical isolate) was obtained from the collection of the Department of Microbiology, Ospedale Maggiore di Milano and maintained on Sabouraud's agar slants and periodically transferred to Sabouraud's agar plates and incubated for 48 hours at 28° C. To prepare a stationary growth phase yeast, a colony was taken from the agar plate and transferred into 30 ml Sabouraud-dextrose broth and incubated for 72 hours at 32° C. Cells were centrifuged and suspended in Hank's balanced salt solution (“HBSS”) to the desired concentration. Viability, determined by the exclusion of 0.01% methylene blue, remained >98%.
C. albicans (1×10^6/ml in HBSS) was incubated in the presence or absence or α-MSH(1-13) (SEQ ID NO: 3) or (11-13) (SEQ ID NO: 1) at concentrations in the range of 10^−15 M to 10^−6 M for 2 hours at 37° C. Cells were then washed in cold distilled water and diluted with HBSS to a concentration of 100 organisms/ml. One-ml aliquots were dispensed on blood agar plates and incubated for 48 hours at 37° C. Organism viability was estimated from the number of colonies formed.
In subsequent experiments using familiar procedures we compared activity of α-MSH(4-10) (SEQ ID NO: 10), (6-13) (SEQ ID NO: 2), (11-13) (SEQ ID NO: 1), ACTH(1-39) (SEQ ID NO: 9), (18-39) (SEQ ID NO: 11) and fluconazole, the latter an established antifungal agent. Melanocortin peptides and fluconazole were tested in concentrations of 10^−6 M to 10^−4 M. There were at least six replicates for each concentration of peptide. […]

[2] = Lipton and Catania, Immunol. Today 1997; cited from earlier work
[3] = tested on: N9 clone of murine microglial cells; assay: TNF-α, IL-6 and NO2− production by LPS+IFN-γ activated microglia; format: cell-based
Procedure: See Delgado, R., Carlin, A., Alraghi, L., Demitri, M., Meda, L., Galimberti, D., Pierluigi, B., Lipton, J. M., Catania, A., Melanocortin Peptides Inhibit Production of Proinflammatory Cytokines and Nitric Oxide by Activated Microglia, 63 J. of Leukocyte Biol. 740 (1998). […] The N9 clone of murine microglial cells was obtained by immortalization of embryonic brain cultures with the 3RV retrovirus carrying an activated v-myconcogene. N9 cells were cultured in T-75-cm^2 culture flasks (Coming, Cambridge, Mass.) and maintained at 37° C. in a humidified incubator under 5% CO2 atmosphere in RPMI 1640 supplemented with 2 mM L-glutamine, 50 U/mL penicillin G, 50 μg/mL streptomycin sulfate (GIBCO-BBL, Paisley, UK), and 10% heat-inactivated fetal bovine serum (FBS, Hyclone Lab, Inc., Logan, Utah) until experiments were performed. Cells were used between the first and the tenth passage.
Sub-confluent microglial cells were washed twice with phosphate-buffered saline (PBS) and incubated with trypsin 0.025% and ethylenediaminetetraacetate (EDTA) 0.02% without calcium and magnesium for 3 min. at 37° C. to detach the cells from the culture flask. Cells were then resuspended in medium and incubated in 24-well tissue-culture plates at a concentration of 2×10^5 cells/mL for 16 h in a humidified incubator (37° C., 5% CO2). Growth medium was removed and cell monolayers were stimulated with 10 ng/mL lipopolysaccharide (LPS, from Escherichia coli 055:B5, Sigma Chemical Co., St. Louis, Mo.) plus 1 U/ml, murine IFN-γ (Sigma). […] Although production of TNF-α and NO was reduced to even much lower concentrations of the peptides, concentrations in the micromolar range had the most profound and consistent inhibitory effects. […] Cell-free supernatants were harvested after 24 h incubation and assayed for TNF-α, IL-6 and NO2. Viability of cells was assessed by trypan blue exclusion for each experimental condition: it was consistently >98%. Dexamethasone (Sigma) and N-monomethyl-L-arginine (L-NMMA: 100 μM, Cayman Chemical, Ann Arbor, Mich.) were used as positive controls for TNF-α and NO inhibition, respectively. Tests were repeated in at least three independent experiments and assays were performed in triplicate.
TNF-α bioactivity was measured in supernatants of cell cultures by standard cytotoxicity assay using L929 cells and recombinant human TNF-α (Sigma) as standard. The detection limit of the bioassay was 20 pg/mL. IL-6 was measured using a commercial murine enzyme-linked immunosorbent assay (ELISA: RPN 2714, Amersham, Little Chalfont, UK).
NO is rapidly oxidized to nitrite in culture medium, and nitrite (NO2^−) concentration is an indicator of NO production. Cell-free culture supernatants were mixed with equal amounts of Griess reagent (1% sulfanilamide, 0.1% naphtylethylenediamide in 2.5% phosphoric acid) in wells of 96-well ELISA plates. Samples were incubated at room temperature for 10 min and absorbance was measured at 540 nm with the use of a microplate reader. Nitrite […] concentrations were calculated using a sodium nitrite standard curve.
Effects of melanocortin peptides on cytokine and NO production were evaluated by repeated measures analysis of variance followed by Dunnet's test for specific comparisons. Probability values less than 0.05 were considered significant.

[4] = tested on: N9 clone of murine microglial cells; assay: Northern blot of TNF-α and iNOS mRNA in activated microglia; format: cell-based; conditions: peptide prior to LPS and IFN-γ
Procedure: Total cellular RNA was extracted from 10^6 adherent microglial cells plated in six-well tissue culture plates (Corning). Electrophoresis of RNA samples (10 μg/lane) was performed in 1% agarose/2.2 M formaldehyde gels and the gels subsequently blotted onto nylon filters by capillary action and baked for 2 h before prehybridization. The cDNA fragments encoding murine TNF-α and mouse macrophage iNOS were ^32P-labeled using the Ready-To-Go DNA Labeling Kit (Pharmacia, Uppsala, Sweden) before hybridization of nylon filters and autoradiography. Blots were subsequently rehybridized with human glyceraldehyde-3-phosphate dehydrogenase (G-3-PDH) cDNA probe as an internal control (Clontech Laboratories, Inc., Palo Alto, Calif.).

[5] = tested on: C. albicans; assay: Horse serum-induced germ tube formation (germination) of C. albicans; format: cell-based; conditions: 10^−6M, 60 minutes at 37° C. after horse serum induction
Procedure: C. albicans from stationary phase cultures were washed twice with distilled water and suspended in HBSS to a final concentration of 2×10^6/ml. Hyphal growth was induced by addition of 10% inactivated horse serum (GIBCO/BRL, Great Britain) to yeast incubated for 45 minutes at 37° C. with continuous shaking. Horse serum was removed by washing cells twice with HBSS and incubation was continued for 60 minutes at 37° C. in the presence of α-MSH(1-13) (SEQ ID NO: 3), (6-13) (SEQ ID NO: 2) or (11-13) (SEQ ID NO: 1) at a concentration of 10^−6M with continuous shaking. The percentage of filamentous cells was evaluated under a light microscope with the aid of hemocytometer. Experiments were run in triplicate and at least 200 cells were scored. Photomicrographs were taken with a MC100 camera attached to an Axioskop Zeiss microscope.

[6] = microglia stimulated with LPS+IFN-γ for 24 hr, micromolar concentrations

α-MSH(4-10): core α-MSH sequence (4-10) [reference compound]
inhibition of CFU ([1]; 10^−4M peptide as printed): approximately 50% | toxicity [2]: very low toxicity

ACTH(1-24): melanocortin peptide ACTH(1-24) (Sigma) (SYSMEHFRWGKPVGKKRRPVKVYP; Designed polypeptide with anti-inflammatory, anti-microbial, anti-fungal, and anti-viral properties.) [reference compound]
concentration most effective at inhibiting cytokine formation ([3]; LPS+IFN-γ stimulated microglia, 1-100 μM tested): 10 to 25 µM | reduction of production of IL-6 [3, 6]: 65% | reduction of production of NO2^− [3, 6]: 41% | reduction of production of TNF-α [3, 6]: 38% | transcription levels (mRNA) for TNF-α and iNOS [4]: inhibition of mRNA transcription

HFRWGKPV (Ac-HFRWGKPV-NH2) [α-MSH(6-13), octapeptide fragment of α-MSH]
relative potency in reducing C. albicans viability ([1]; 10^−4M melanocortin peptides): most effective | reduction in the number of filamentous cells / inhibition of germ tube formation [5]: approximately 50%

Source: US7115574B2, “System and method for support legacy operating system booting in a legacy-free system” (priority 2001, dated 2006)
